{"source": "patent US9663449B2", "about": "“Lipid containing formulations” (ARBUTUS BIOPHARMA CORPORATION, priority 2006, dated 2017)", "tested_on": "Factor VII", "assay": "In vivo Factor VII silencing assay, serum Factor VII by chromogenic kit", "design": "species or system C57BL/6 mice", "conditions": "2 mg/kg siRNA; FIG. 1; suggested, 5 tail and/or 6 tail, most abundant species in ND98 6:1 preparation", "protocol": "Applicants have discovered that certain polyamine lipid moieties provide desirable properties for administration of nucleic acids, such as siRNA. For example, in some embodiments, a lipid moiety is complexed with a Factor VII-targeting siRNA and administered to an animal such as a mouse. The level of secreted serum Factor VII is then quantified (24 h post administration), where the degree of Factor VII silencing indicates the degree of in vivo siRNA delivery. Accordingly, lipids providing enhanced in vivo delivery of a nucleic acid such as siRNA are preferred. In particular, Applicants have discovered polyamines having substitutions described herein can have desirable properties for delivering siRNA, such as bioavailability, biodegradability, and tolerability.\nC57BL/6 mice received tail vein injections of saline or various lipid formulations. Lipid-formulated siRNAs are administered at varying doses in an injection volume of 10 μL/g animal body weight. Twenty-four hours after administration, serum samples are collected by retroorbital bleed. Serum Factor VII concentrations are determined using a chromogenic diagnostic kit (Coaset Factor VII Assay Kit, DiaPharma) according to manufacturer protocols.\nThe effectiveness of lipid compositions can be tested by determining the relative ability of a lipid to deliver an siRNA moiety to a target. […]"}
{"compound": "CCCCCCCCCCCCNC(=O)CCN(CCC(=O)NCCCCCCCCCCCC)CCN(CCC(=O)NCCCCCCCCCCCC)CCN(CCC(=O)NCCCCCCCCCCCC)CCN(CCC(=O)NCCCCCCCCCCCC)CCC(=O)NCCCCCCCCCCCC", "note": "[Compound 5]", "values": [{"measurement": "FVII silencing, active lipid species", "value": "active species"}]}
